From patent US10138227B2, “Heteroaryl substituted pyridines and methods of use” (AbbVie S.à.r.l., priority 2016, dated 2018) come the findings set out here.

A word on the EC50: it is the midpoint of the concentration-response curve. Low values mean a more potent agent, high ones a less potent agent.

Structures are written as SMILES.

In the assay the target is T1, CFTR ΔF508 mutant (Homo sapiens, UniProt P13569, DEL508-508).
T1 construct: expressed in transfected cells; host or cells: CFBE41o- cells transduced with adenoviral vectors
Description: YFP-halide influx assay for the CFTR-ΔF508 mutation. It counts as cell-based. The following applies: CFBE41o- cells expressing CFTR ΔF508 and YFP reporter, forskolin 10.67 μM; for EC50: (1-F/F0) vs concentration. An excerpt:
The YFP halide influx assay measured the functionality of the cystic fibrosis Transmembrane Conductance regulator (CFTR) channels in the cystic fibrosis bronchial epithelium cell line CFBE41o-. The assay was used to evaluate the capacity of compounds to increase the open probability of existing CFTR channels in the membrane. It makes use of the observation that the yellow fluorescent protein (YFP) variant YFP H148Q, I152L, F47L has its fluorescence substantially quenched by halide ions like Cl^− and I^− (Galietta, L. J. V., Haggie, P. M., Verkman, A. S., 2001. Green fluorescent protein-based halide indicators with improved chloride and iodide affinities. FEBS Lett. 499, 220-224. doi:10.1016/S0014-5793(01)02561-3; Nagai, T., Ibata, K., Park, E. S., Kubota, M., Mikoshiba, K., Miyawaki, A., 2002. A variant of yellow fluorescent protein with fast and efficient maturation for cell-biological applications. Nat. Biotechnol. 20, 87-90. doi:10.1038/nbt0102-87).
For this purpose, CFBE410-cells were seeded in 384 well plates (3000 CFBE cells/well). One day after seeding, the CFBE cells were transduced with adenoviral vectors that direct the expression of the CFTR ΔF508 mutant and of the YFP reporter. Cells were incubated at 27° C., 5% CO2 for 24 hours so as to allow for the proper folding and migration to the membrane of the CFTR channel or treated with a CFTR modulator during 24 hours at 37° C.
The I-induced quenching of fluorescence was recorded on an immediately after injection of iodide for 2 minutes on an FDSS/μCell (Hamamatsu). The capacity of a compound to increase the channel opening was directly correlated with the decrease in fluorescence, and was expressed as (1-(fluorescence after 36 seconds (F)/fluorescence before injection (F0))) and an EC50 was derived from a (1-F/F0) vs compound concentration plot.

T1 sequence (P13569 with tags, fused parts or gaps DEL508-508): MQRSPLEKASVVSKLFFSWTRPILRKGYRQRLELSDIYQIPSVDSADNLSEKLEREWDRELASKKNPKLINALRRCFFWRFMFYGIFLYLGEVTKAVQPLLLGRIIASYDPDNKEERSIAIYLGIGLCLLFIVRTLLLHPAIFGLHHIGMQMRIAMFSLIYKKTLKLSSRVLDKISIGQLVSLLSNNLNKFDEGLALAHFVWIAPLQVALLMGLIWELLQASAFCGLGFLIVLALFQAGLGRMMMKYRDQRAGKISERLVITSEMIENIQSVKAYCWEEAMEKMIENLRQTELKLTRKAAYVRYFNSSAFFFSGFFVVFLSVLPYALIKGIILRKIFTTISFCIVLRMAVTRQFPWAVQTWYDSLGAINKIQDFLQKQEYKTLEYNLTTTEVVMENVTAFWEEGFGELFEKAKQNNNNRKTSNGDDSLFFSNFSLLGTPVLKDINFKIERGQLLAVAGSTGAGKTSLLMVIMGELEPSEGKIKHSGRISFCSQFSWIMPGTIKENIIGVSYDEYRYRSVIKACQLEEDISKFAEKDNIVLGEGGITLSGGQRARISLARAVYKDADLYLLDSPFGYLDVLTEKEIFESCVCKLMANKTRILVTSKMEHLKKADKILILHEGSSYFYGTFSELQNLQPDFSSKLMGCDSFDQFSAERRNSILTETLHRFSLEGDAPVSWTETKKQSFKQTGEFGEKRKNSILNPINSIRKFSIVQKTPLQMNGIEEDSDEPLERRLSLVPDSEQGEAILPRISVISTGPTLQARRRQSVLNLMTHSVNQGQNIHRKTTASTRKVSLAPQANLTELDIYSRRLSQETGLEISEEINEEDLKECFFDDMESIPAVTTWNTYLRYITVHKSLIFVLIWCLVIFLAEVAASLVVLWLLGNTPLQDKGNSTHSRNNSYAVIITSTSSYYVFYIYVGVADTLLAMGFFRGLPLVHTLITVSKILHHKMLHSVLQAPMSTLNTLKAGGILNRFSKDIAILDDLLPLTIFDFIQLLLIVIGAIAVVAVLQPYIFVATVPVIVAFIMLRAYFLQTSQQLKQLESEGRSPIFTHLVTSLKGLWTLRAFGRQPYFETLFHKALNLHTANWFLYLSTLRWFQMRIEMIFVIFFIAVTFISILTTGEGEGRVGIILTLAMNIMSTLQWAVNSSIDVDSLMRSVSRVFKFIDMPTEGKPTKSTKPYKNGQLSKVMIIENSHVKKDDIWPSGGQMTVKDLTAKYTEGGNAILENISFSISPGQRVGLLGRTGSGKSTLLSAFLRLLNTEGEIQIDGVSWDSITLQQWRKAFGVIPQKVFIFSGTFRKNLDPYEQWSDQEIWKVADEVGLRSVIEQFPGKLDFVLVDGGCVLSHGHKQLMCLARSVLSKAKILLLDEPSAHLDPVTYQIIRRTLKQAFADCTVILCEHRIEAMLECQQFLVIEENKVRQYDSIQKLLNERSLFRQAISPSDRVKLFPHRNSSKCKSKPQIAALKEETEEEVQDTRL

As to `Nc1cc(S(=O)(=O)c2ccc(OC(F)(F)F)cc2)c(Br)nc1-c1nnc(CO)o1` [Compound 63, (5-{3-amino-6-bromo-5-[4-(trifluoromethoxy)benzene-1-sulfonyl]pyridin-2-yl}-1,3,4-oxadiazol-2-yl)methanol], the “% Activation” value was found to be 109.95% and the concentration giving a half-maximal response (EC50) was under 0.00039 µM.

With `Nc1cc(S(=O)(=O)c2ccc(OC(F)(F)F)cc2)cnc1-c1nnc(COc2cccnc2)o1` [Compound 38, 2-(5-{[(pyridin-3-yl)oxy]methyl}-1,3,4-oxadiazol-2-yl)-5-[4-(trifluoromethoxy)benzene-1-sulfonyl]pyridin-3-amine], the “% Activation” value is reported as 109.05% and it took 0.224 µM to reach a half-maximal effect (EC50).

For `Nc1cc(S(=O)(=O)c2ccc(OC(F)(F)F)cc2)cnc1-c1nnco1` [Compound 6, 2-(1,3,4-oxadiazol-2-yl)-5-[4-(trifluoromethoxy)benzene-1-sulfonyl]pyridin-3-amine], the “% Activation” value is reported as 86.03% and the 50% effective concentration (EC50) worked out at 0.0781 µM.

For `COCc1nnc(-c2ncc(S(=O)(=O)c3ccc(OC(F)(F)F)cc3)cc2N)o1` [Compound 37, 2-[5-(methoxymethyl)-1,3,4-oxadiazol-2-yl]-5-[4-(trifluoromethoxy)benzene-1-sulfonyl]pyridin-3-amine], the “% Activation” value turned out to be 119.85% and the response was half-maximal at 0.0287 µM (EC50).

Consider `CO[C@H](C)c1nnc(-c2ncc(S(=O)(=O)c3ccc(OC(F)(F)F)cc3)cc2N)o1` [Compound 34, 2-{5-[(1R)-1-methoxyethyl]-1,3,4-oxadiazol-2-yl}-5-[4-(trifluoromethoxy)benzene-1-sulfonyl]pyridin-3-amine], for which the “% Activation” value is 102.19% and the half-maximal effective concentration (EC50) stood at 0.0213 µM.

As for `Nc1cc(S(=O)(=O)c2ccc(OC(F)(F)F)cc2)cnc1-c1nnc(COCC2CC2)o1` [Compound 12, 2-{5-[(cyclopropylmethoxy)methyl]-1,3,4-oxadiazol-2-yl}-5-[4-(trifluoromethoxy)benzene-1-sulfonyl]pyridin-3-amine], the “% Activation” value is reported as 100.38% and the EC50 came out at 0.00852 µM.

Regarding `Nc1cc(S(=O)(=O)c2ccc(OC(F)(F)F)cc2)cnc1-c1nnc(COCC2CC2)s1` [Compound 24, 2-{5-[(cyclopropylmethoxy)methyl]-1,3,4-thiadiazol-2-yl}-5-[4-(trifluoromethoxy)benzene-1-sulfonyl]pyridin-3-amine], the “% Activation” value came to 100.82% and the 50% effective concentration (EC50) worked out at 0.0137 µM.

On to `CCOCc1nnc(-c2ncc(S(=O)(=O)c3ccc(OC(F)(F)F)cc3)cc2N)o1` [Compound 36, 2-[5-(ethoxymethyl)-1,3,4-oxadiazol-2-yl]-5-[4-(trifluoromethoxy)benzene-1-sulfonyl]pyridin-3-amine], for which the “% Activation” value came out at 102.93% and a half-maximal effect (EC50) was put at 0.0123 µM.

As for `Nc1cc(S(=O)(=O)c2ccc(OC(F)(F)F)cc2)cnc1-c1nnc(C[C@H]2CCCO2)o1` [Compound 41, 2-(5-{[(2R)-oxolan-2-yl]methyl}-1,3,4-oxadiazol-2-yl)-5-[4-(trifluoromethoxy)benzene-1-sulfonyl]pyridin-3-amine], the “% Activation” value is 96.97% and the midpoint of the response, the EC50, lay at 0.0413 µM.

Turning to `Nc1cc(S(=O)(=O)c2ccc(OC(F)(F)F)cc2)cnc1-c1nc(C2CCOC2)no1` (stereo not drawn) [Compound 53, 2-[3-(oxolan-3-yl)-1,2,4-oxadiazol-5-yl]-5-[4-(trifluoromethoxy)benzene-1-sulfonyl]pyridin-3-amine], the “% Activation” value is listed as 15.28% and the half-maximal effective concentration (EC50) was over 4.99 µM.

For `COCCOCc1nnc(-c2ncc(S(=O)(=O)c3ccc(OC(F)(F)F)cc3)cc2N)s1` [Compound 17, 2-{5-[(2-methoxyethoxy)methyl]-1,3,4-thiadiazol-2-yl}-5-[4-(trifluoromethoxy)benzene-1-sulfonyl]pyridin-3-amine], the “% Activation” value is recorded as 117.3% and the response was half-maximal at 0.0114 µM (EC50).

With `C[C@@](O)(c1nnc(-c2ncc(S(=O)(=O)c3ccc(OC(F)(F)F)cc3)cc2N)s1)C(F)(F)F` [Compound 20, (2S)-2-(5-{3-amino-5-[4-(trifluoromethoxy)benzene-1-sulfonyl]pyridin-2-yl}-1,3,4-thiadiazol-2-yl)-1,1,1-trifluoropropan-2-ol], the “% Activation” value is on record as 97.45% and the half-maximal effective concentration (EC50) was 0.00812 µM.

As for `CC(C)(O)c1nnc(-c2ncc(S(=O)(=O)c3ccc(OC(F)(F)F)cc3)cc2N)o1` [Compound 43, 2-(5-{3-amino-5-[4-(trifluoromethoxy)benzene-1-sulfonyl]pyridin-2-yl}-1,3,4-oxadiazol-2-yl)propan-2-ol], the “% Activation” value is reported as 110.8% and the EC50 is under 0.00077 µM.

With `Nc1cc(S(=O)(=O)c2ccc(OC(F)(F)F)cc2)cnc1-c1nnc(C2CCCCC2)o1` [Compound 10, 2-(5-cyclohexyl-1,3,4-oxadiazol-2-yl)-5-[4-(trifluoromethoxy)benzene-1-sulfonyl]pyridin-3-amine], the “% Activation” value turned out to be 106.5% and the EC50 stood at 0.0149 µM.

As to `Nc1cc(S(=O)(=O)c2ccc(OC(F)(F)F)cc2)cnc1-c1nnc(COC2CCOC2)s1` (stereo not drawn) [Compound 29, 2-(5-{[(oxolan-3-yl)oxy]methyl}-1,3,4-thiadiazol-2-yl)-5-[4-(trifluoromethoxy)benzene-1-sulfonyl]pyridin-3-amine], the “% Activation” value was 102.9% and the 50% effective concentration (EC50) worked out at 0.016 µM.

Regarding `Nc1cc(S(=O)(=O)c2ccc(OC(F)(F)F)cc2)c(Cl)nc1-c1nnc(CO)o1` [Compound 64, (5-{3-amino-6-chloro-5-[4-(trifluoromethoxy)benzene-1-sulfonyl]pyridin-2-yl}-1,3,4-oxadiazol-2-yl)methanol], the “% Activation” value is recorded as 122% and the EC50 is under 0.00046 µM.

As for `Nc1cc(S(=O)(=O)c2ccc(OC(F)(F)F)cc2)cnc1-c1nnc(COC2CCCC2)o1` [Compound 14, 2-{5-[(cyclopentyloxy)methyl]-1,3,4-oxadiazol-2-yl}-5-[4-(trifluoromethoxy)benzene-1-sulfonyl]pyridin-3-amine], the “% Activation” value stood at 116.8% and the EC50 was 0.0679 µM.

On to `Nc1cc(S(=O)(=O)c2ccc(OC(F)(F)F)cc2)cnc1-c1nnc(C[C@@H]2CCCO2)s1` [Compound 31, 2-(5-{[(2S)-oxolan-2-yl]methyl}-1,3,4-thiadiazol-2-yl)-5-[4-(trifluoromethoxy)benzene-1-sulfonyl]pyridin-3-amine], for which the “% Activation” value is 102.85% and the concentration giving a half-maximal response (EC50) amounted to 0.0369 µM.

On to `Nc1cc(S(=O)(=O)c2ccc(OC(F)(F)F)cc2)cnc1-c1nc(CC2CCCO2)no1` (stereo not drawn) [Compound 51, 2-{3-[(oxolan-2-yl)methyl]-1,2,4-oxadiazol-5-yl}-5-[4-(trifluoromethoxy)benzene-1-sulfonyl]pyridin-3-amine], for which the “% Activation” value is 23.23% and the EC50 is over 3.32 µM.

On to `Nc1cc(S(=O)(=O)c2ccc(OC(F)(F)F)cc2)cnc1-c1nc(C2CC2)no1` [Compound 52, 2-(3-cyclopropyl-1,2,4-oxadiazol-5-yl)-5-[4-(trifluoromethoxy)benzene-1-sulfonyl]pyridin-3-amine], for which the “% Activation” value came to 3.42% and the EC50 is over 4.99 µM.

Consider `Nc1cc(S(=O)(=O)c2ccc(OC(F)(F)F)cc2)cnc1-c1nnc(COc2ccccc2)o1` [Compound 13, 2-[5-(phenoxymethyl)-1,3,4-oxadiazol-2-yl]-5-[4-(trifluoromethoxy)benzene-1-sulfonyl]pyridin-3-amine], for which the “% Activation” value came to 100.57% and the concentration giving a half-maximal response (EC50) amounted to 0.327 µM.

In the case of `CO[C@@H](c1ccccc1)c1nnc(-c2ncc(S(=O)(=O)c3ccc(OC(F)(F)F)cc3)cc2N)o1` [Compound 11, 2-{5-[(S)-methoxy(phenyl)methyl]-1,3,4-oxadiazol-2-yl}-5-[4-(trifluoromethoxy)benzene-1-sulfonyl]pyridin-3-amine], the “% Activation” value was 109.82% and the EC50 was determined as 0.0351 µM.

`CC(C)c1ccccc1S(=O)(=O)c1cnc(-c2nnc(CO)o2)c(N)c1` [Compound 65, (5-{3-amino-5-[2-(propan-2-yl)benzene-1-sulfonyl]pyridin-2-yl}-1,3,4-oxadiazol-2-yl)methanol]: the “% Activation” value is reported as 106.55% and the half-maximal effective concentration (EC50) is under 0.00105 µM.

As for `Nc1cc(S(=O)(=O)c2ccc(OC(F)(F)F)cc2)cnc1-c1nnc([C@@H](O)Cc2ccccc2)o1` [Compound 44, (1S)-1-(5-{3-amino-5-[4-(trifluoromethoxy)benzene-1-sulfonyl]pyridin-2-yl}-1,3,4-oxadiazol-2-yl)-2-phenyl ethan-1-ol], the “% Activation” value is recorded as 105.25% and the concentration giving a half-maximal response (EC50) was 0.00163 µM.
